The values that follow come from patent US5948808A, “Indole-3-carbinol, diindolylmethane and substituted analogs as antiestrogens” (The Texas A&M University System, priority 1997, dated 1999).

Series [1] relates to MCF-7 cells. The experiment in a line: Effect of compounds on MCF-7 proliferation (E2-induced growth). Particulars: Homo sapiens, MCF7, 144 h, with E2 (1 nM), 6 days. Format: cell-based. On the procedure: MCF-7 cells (50,000 per well) were grown in six-well plates in DME-F12 medium as described in Liu, et al., Mol. Cell Endocrinol, 87:19-28, 1992. The cells were given fresh medium plus the compounds being tested every other day. After 6 days of treatment, the cells were harvested and counted with a Coulter counter (Coulter Electronics, Hialeah, Fla.) as described by Liu et al., J. Natl. Cancer Inst., 86. 1758-1765, 1994; Tiwari et al., J. Natl, Cancer Inst. 86, 126-131, 1994. In some cases, 17-β-estradiol (E2) (1×10^-9 M) was also added in combination with the IC3 or DIM analogs.
__________________________________________________________________________
EFFECTS OF DIFFERENT CONCENTRATIONS OF I3C
AND SUBSTITUTED ANALOGS ON THE GROWTH
OF MCF-7 CELLS IN THE PRESENCF OF E2
% of E2-Induced Response (Conc. of I3C Analogs)
EFFECTS OF DIFFERENT CONCENTRATIONS OF DIM
AND SUBSTITUTED ANALOGS ON THE
GROWTH OF MCF-7 CELLS IN THE PRESENCE OF E2
% of E2-Induced Response (Conc. of DIM Analogs)

For series [2], the system named is DMBA-induced mammary tumors. The experiment in a line: Tumor growth in DMBA-induced mammary carcinoma model. Format: in vivo, Sprague-Dawley rats. Particulars: 10 treatments by gavage 5 mg/kg every other day, sacrificed day 21; mean ± standard error.
The subject of series [3] is EROD. The series is described as follows: EROD in rats of the DMBA-induced mammary carcinoma model. In kind it is in vivo, Sprague-Dawley rats. Particulars: 10 treatments by gavage 5 mg/kg every other day, sacrificed day 21; mean ± standard error.
Series [4] is described as follows: Toxic endpoints (organ weights) in rats of the DMBA-induced mammary carcinoma model. In kind it is in vivo, Sprague-Dawley rats. Particulars: 10 treatments by gavage 5 mg/kg every other day, sacrificed day 21, mean ± standard error; for Uterine Wet Weight: control 0.182 ± 0.016; for Liver Weight: control 4.07 ± 0.19.
Series [5] relates to mammary tumors. Particulars: oral, 20 hours prior to DMBA; cited from earlier work.
The subject of series [6] is estrogen-regulated tumors. Particulars: cited from earlier work.
Series [7] deals with DMBA-induced mammary tumor. Particulars: dietary I3C; 20% Brussels sprouts; cited from earlier work.
Setting [8] is: read-out: % of E2-Induced Response (Conc. of I3C Analogs).
[9] abbreviates: read-out: % of E2-Induced Response (Conc. of DIM Analogs).

Like-named read-outs stand apart in the source and are kept apart here.

With `Cc1c(CO)c2ccccc2n1C` [1,2-Dimethyl-I3C], in series [1] (setting [8]), the activity at 0.1 µM amounted to 98 ± 5.68%, the activity at 1 µM came out at 94.4 ± 7.73%, the activity at 10 µM was determined as 65.9 ± 2.86% and the activity at 50 µM was 0.35 ± 0.24%. For the same compound, the activity at 100 µM in series [1] (setting [8]) was determined as 0.42 ± 0.14%.

Regarding `Brc1ccc2[nH]cc(Cc3c[nH]c4ccc(Br)cc34)c2c1` [5-Bromo-DIM, 5,5'-dibromo-diindolylmethane], in series [1] (setting [9]), the activity at 0.01 µM was found to be 99.03 ± 0.49%, the activity at 0.1 µM stood at 106 ± 3.38%, the activity at 1 µM is 75 ± 1.35% and the activity at 5 µM worked out at 9.92 ± 0.58%. The activity at 10 µM in series [1] (setting [9]) turned out to be 0.3 ± 0.04%.

As for `OCc1c[nH]c2ccc(Br)cc12` [5-Bromo-I3C, 5-bromo-indole-3-carbinol], in series [1] (setting [8]), the activity at 0.1 µM amounted to 96.3 ± 6.97%, the activity at 1 µM turned out to be 97.3 ± 6.33%, the activity at 10 µM amounted to 94.4 ± 2.47% and the activity at 50 µM was 59.6 ± 1.05%. Further, the activity at 100 µM in series [1] (setting [8]) came out at 14.9 ± 0.72%.

On to `Clc1ccc2[nH]cc(Cc3c[nH]c4ccc(Cl)cc34)c2c1` [5-Chloro-DIM, 5,5'-dichloro-diindolylmethane], for which, in series [1] (setting [9]), the activity at 0.01 µM is 98.4 ± 11.2%, the activity at 0.1 µM stood at 98.3 ± 8.34%, the activity at 1 µM was 87.3 ± 5.98% and the activity at 5 µM was 0.75 ± 0.1%. The activity at 10 µM in series [1] (setting [9]) is 0.99 ± 0.27%.

Turning to `OCc1c[nH]c2ccc(Cl)cc12` [5-Chloro-I3C, 5-chloro-indole-3-carbinol], in series [1] (setting [8]), the activity at 0.1 µM amounted to 94 ± 11.2%, the activity at 1 µM is 92.4 ± 3.14%, the activity at 10 µM came out at 82.2 ± 4.55% and the activity at 50 µM came out at 29.8 ± 5.98%. Also, in series [1] (setting [8]), the activity at 100 µM amounted to 1.02 ± 0.22%.

Regarding `Fc1ccc2[nH]cc(Cc3c[nH]c4ccc(F)cc34)c2c1` [5-Fluoro-DIM, 5,5'-difluoro-diindolylmethane], in series [1] (setting [9]), the activity at 0.01 µM came out at 90.3 ± 2.5%, the activity at 0.1 µM amounted to 103 ± 2.63%, the activity at 1 µM was found to be 77.1 ± 3.51% and the activity at 5 µM turned out to be 35.7 ± 5.13%. For the same compound, in series [1] (setting [9]), the activity at 10 µM came out at 8.46 ± 1.17%. In addition, in series [2], the “Tumor Volume” value was found to be 35.8 ± 16.6 % Control and the “Tumor Weight” value worked out at 45.0 ± 20.0 % Control. Also, the EROD in series [3] amounted to 157.6 ± 22.1 % Control. Besides, in series [4], the “Uterine Wet Weight” value was 0.208 ± 0.044 % body weight and the “Liver Weight” value turned out to be 4.30 ± 0.29 % body weight.

In the case of `COc1ccc2[nH]cc(Cc3c[nH]c4ccc(OC)cc34)c2c1` [5-Methoxy-DIM, 5,5'-dimethoxy-diindolylmethane], in series [1] (setting [9]), the activity at 0.01 µM is 87.2 ± 3.52%, the activity at 0.1 µM worked out at 89.4 ± 3.12%, the activity at 1 µM was determined as 69.4 ± 3.95% and the activity at 5 µM was 37.1 ± 4.52%. Besides, in series [1] (setting [9]), the activity at 10 µM is 11.4 ± 1.63%. In addition, in series [2], the “Tumor Volume” value is 22.1 ± 4.4 % Control and the “Tumor Weight” value was found to be 22.1 ± 4.4 % Control. The compound further showed an EROD in series [3] of 151.2 ± 43.4 % Control. For the same compound, in series [4], the “Uterine Wet Weight” value is 0.224 ± 0.034 % body weight and the “Liver Weight” value is 4.16 ± 0.23 % body weight.

As for `COc1ccc2[nH]cc(CO)c2c1` [5-Methoxy-I3C, 5-methoxy-indole-3-carbinol], in series [1] (setting [8]), the activity at 0.1 µM amounted to 87.6 ± 5.4%, the activity at 1 µM worked out at 78.4 ± 11.9%, the activity at 10 µM came out at 58.9 ± 7.96% and the activity at 50 µM was 2.97 ± 0.2%. Besides, in series [1] (setting [8]), the activity at 100 µM is 0.61 ± 0.14%.

As for `Cc1ccc2[nH]cc(CO)c2c1` [5-Methyl-I3C, 5-methyl-indole-3-carbinol], in series [1] (setting [8]), the activity at 0.1 µM is 87.8 ± 11.1%, the activity at 1 µM amounted to 81.6 ± 10.8%, the activity at 10 µM came to 53 ± 4.24% and the activity at 50 µM is 0.87 ± 0.11%. For the same compound, in series [1] (setting [8]), the activity at 100 µM is 0.57 ± 0.2%.

As to `O=[N+]([O-])c1ccc2[nH]cc(CO)c2c1` [5-Nitro-I3C], in series [1] (setting [8]), the activity at 0.1 µM amounted to 94.7 ± 2.05%, the activity at 1 µM is 92.7 ± 3.89%, the activity at 10 µM turned out to be 44.2 ± 3.34% and the activity at 50 µM is 1.71 ± 0.06%. In series [1] (setting [8]), the activity at 100 µM is 0.39 ± 0.06%.

`c1ccc2c(Cc3c[nH]c4ccccc34)c[nH]c2c1` [DIM, 3,3'diindolylmethane, reference compound]: in series [1] (setting [9]), the activity at 0.01 µM stood at 107 ± 8.43%, the activity at 0.1 µM worked out at 97.3 ± 3.56%, the activity at 1 µM stood at 77 ± 5.16% and the activity at 5 µM amounted to 22.5 ± 2.47%. The activity at 10 µM in series [1] (setting [9]) turned out to be 6.84 ± 0.71%. Further, in series [2], the “Tumor Volume” value came out at 19.9 ± 5.8 % Control and the “Tumor Weight” value stood at 23.7 ± 6.0 % Control. This compound displayed an EROD in series [3] of 106.1 ± 22.4 % Control. In series [4], the “Uterine Wet Weight” value is 0.184 ± 0.027 % body weight and the “Liver Weight” value was 3.87 ± 0.22 % body weight. Further, the “occurrence of mammary tumors (in words)” value in series [5] is “inhibited the occurrence of mammary tumors”.

`OCc1c[nH]c2ccccc12` [I3C, indole 3-carbinol, reference compound]: in series [1] (setting [8]), the activity at 0.1 µM came out at 100 ± 5.7%, the activity at 1 µM was determined as 96.3 ± 3.23%, the activity at 10 µM was 83.9 ± 2.46% and the activity at 50 µM worked out at 36.9 ± 0.65%. The activity at 100 µM in series [1] (setting [8]) is 8.15 ± 1%. In addition, the “occurrence of mammary tumors (in words)” value in series [5] is on record as “inhibited the occurrence of mammary tumors”. Also, in series [6] (rodent mammary, endometrium and uterus), the “formation or growth of estrogen-regulated tumors (in words)” value was “inhibit formation or growth of estrogen-regulated tumors”. Further, the “mammary carcinogenesis (in words)” value in series [6] (rodent models) was “inhibits mammary carcinogenesis in rodent models”. For the same compound, the “DMBA-induced mammary tumor formation and progression (in words)” value in series [7] was “inhibited DMBA-induced mammary tumor formation and progression”.

In the case of `Cn1cc(Cc2cn(C)c3ccccc23)c2ccccc21` [N-Methyl-DIM, N,N'-dimethyl-diindolylmethane], in series [1] (setting [9]), the activity at 0.01 µM stood at 82.8 ± 10.8%, the activity at 0.1 µM was found to be 96.4 ± 2.94%, the activity at 1 µM turned out to be 78.5 ± 3.03% and the activity at 5 µM was found to be 3.92 ± 0.49%. For the same compound, the activity at 10 µM in series [1] (setting [9]) was 0.85 ± 0.12%.

For `Cn1cc(CO)c2ccccc21` [N-Methyl-I3C, N-methyl-indole-3-carbinol], in series [1] (setting [8]), the activity at 0.1 µM was found to be 95.6 ± 4.26%, the activity at 1 µM came to 96.2 ± 1.66%, the activity at 10 µM is 47.8 ± 2.13% and the activity at 50 µM stood at 14.4 ± 0.9%. In series [1] (setting [8]), the activity at 100 µM was 3.91 ± 0.64%.
